In patent US20230271954A1 (Gossamer Bio Services, Inc., priority 2020, published 2023) one finds IC50 data, which are given here for 24 compounds.

The target of assay [1] is DGKα (Homo sapiens, UniProt P23743). As to the kind of experiment: DGKα biochemical assay (ADP-Glo). The settings on record: read-out: DGK α IC50. The essentials:
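ADP-Glo kinase assay using OAG/PS (1:2) lipid substrate, sonicated, in HEPES pH 7.0 buffer with MgCl2, CaCl2, DTT, BSA, Triton X-100. Enzyme preincubated with compound 30 min at RT; substrate with ATP (DGKα: 400 μM) added, 45 min RT. Luminescence read; % inhibition vs DMSO and no-enzyme controls.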
For orientation: In ADP-Glo the light output rises with the ADP produced.

Assay [2] has as its target T1, DGKζ (Homo sapiens, UniProt Q13574).
T1 construct: purchased Carna 12-110
In words: DGKζ biochemical assay (ADP-Glo). The settings on record: read-out: DGK ζ IC50.

Where only a bound is given, the exact number is not on record here.

T1 sequence (Q13574 1-929 isoform Q13574-4): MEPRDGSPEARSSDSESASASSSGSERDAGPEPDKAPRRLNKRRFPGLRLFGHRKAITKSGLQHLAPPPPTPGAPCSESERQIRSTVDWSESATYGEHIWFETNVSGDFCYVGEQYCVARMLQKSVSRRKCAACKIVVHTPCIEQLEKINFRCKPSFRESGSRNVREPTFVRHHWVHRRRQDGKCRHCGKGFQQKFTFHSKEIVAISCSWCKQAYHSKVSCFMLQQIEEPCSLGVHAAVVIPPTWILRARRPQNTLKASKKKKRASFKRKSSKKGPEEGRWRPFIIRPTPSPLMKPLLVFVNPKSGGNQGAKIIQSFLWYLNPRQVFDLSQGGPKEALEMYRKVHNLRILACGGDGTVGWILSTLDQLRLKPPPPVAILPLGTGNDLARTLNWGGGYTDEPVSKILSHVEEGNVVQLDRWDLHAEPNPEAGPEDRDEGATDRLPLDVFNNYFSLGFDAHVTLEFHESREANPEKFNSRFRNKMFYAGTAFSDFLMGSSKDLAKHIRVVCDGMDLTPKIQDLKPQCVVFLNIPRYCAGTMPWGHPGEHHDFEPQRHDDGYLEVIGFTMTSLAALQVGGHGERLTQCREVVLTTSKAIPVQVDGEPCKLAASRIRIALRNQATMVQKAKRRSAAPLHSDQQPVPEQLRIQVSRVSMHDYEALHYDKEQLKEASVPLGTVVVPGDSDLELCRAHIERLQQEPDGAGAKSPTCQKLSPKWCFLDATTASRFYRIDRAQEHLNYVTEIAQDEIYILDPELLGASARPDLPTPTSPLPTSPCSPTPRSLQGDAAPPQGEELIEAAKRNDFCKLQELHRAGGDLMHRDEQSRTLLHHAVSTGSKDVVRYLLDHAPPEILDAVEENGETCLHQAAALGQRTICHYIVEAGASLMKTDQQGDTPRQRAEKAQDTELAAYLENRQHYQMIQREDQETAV
DGKα, sequence (P23743 whole entry): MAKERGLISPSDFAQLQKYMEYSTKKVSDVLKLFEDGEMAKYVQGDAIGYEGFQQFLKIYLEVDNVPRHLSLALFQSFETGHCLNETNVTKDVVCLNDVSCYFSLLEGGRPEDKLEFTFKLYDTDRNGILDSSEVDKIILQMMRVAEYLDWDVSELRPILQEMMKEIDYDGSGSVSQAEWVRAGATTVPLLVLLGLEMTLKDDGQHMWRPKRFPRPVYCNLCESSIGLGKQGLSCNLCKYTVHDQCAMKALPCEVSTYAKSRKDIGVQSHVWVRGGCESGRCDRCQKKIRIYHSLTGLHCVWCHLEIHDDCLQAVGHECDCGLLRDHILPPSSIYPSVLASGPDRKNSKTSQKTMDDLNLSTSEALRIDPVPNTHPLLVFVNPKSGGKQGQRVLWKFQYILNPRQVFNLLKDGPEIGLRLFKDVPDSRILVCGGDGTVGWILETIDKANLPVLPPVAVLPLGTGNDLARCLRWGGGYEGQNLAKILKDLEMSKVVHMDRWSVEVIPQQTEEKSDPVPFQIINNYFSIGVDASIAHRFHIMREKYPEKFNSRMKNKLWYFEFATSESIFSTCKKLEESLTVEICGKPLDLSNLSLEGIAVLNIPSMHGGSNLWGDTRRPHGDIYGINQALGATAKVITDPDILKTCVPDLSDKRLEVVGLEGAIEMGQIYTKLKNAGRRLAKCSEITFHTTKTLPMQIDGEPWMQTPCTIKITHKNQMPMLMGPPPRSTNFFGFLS

What is called IC50 is the concentration at which inhibition is half-maximal. `COc1cc(F)ccc1N(C)[C@H]1CC[C@H](N(C)c2c(C#N)c(=O)n(C)c3ccc(C#N)nc23)CC1` [Example 46, trans-8-((4-((4-fluoro-2-methoxyphenyl)(methyl)amino)cyclohexyl)(methyl)amino)-5-methyl-6-oxo-5,6-dihydro-1,5-naphthyridine-2,7-dicarbonitrile]: the IC50 in assay [1] fell in the range of 100 to 1000 nM; in assay [2], 10 to 100 nM.

`Cn1c(=O)c(C#N)c(N(C)[C@H]2CC[C@@H](N(CC3CC3)c3ccc(F)cc3)CC2)c2nc(C#N)ccc21` [Example 30, cis-8-((4-((cyclopropylmethyl)(4-fluorophenyl)amino)cyclohexyl)(methyl)amino)-5-methyl-6-oxo-5,6-dihydro-1,5-naphthyridine-2,7-dicarbonitrile]: the IC50 was less than 10 nM in assay [1] and 10 to 100 nM in assay [2].

Regarding `Cn1c(=O)cc(N(C)[C@H]2CC[C@H](N(CC3CC3)c3cccc(F)c3)CC2)c2nc(C#N)ccc21` [Example 25, trans-8-((4-((cyclopropylmethyl)(3-fluorophenyl)amino)cyclohexyl)(methyl)amino)-5-methyl-6-oxo-5,6-dihydro-1,5-naphthyridine-2-carbonitrile], the IC50 in assay [1] and in assay [2] was no less than 1000 nM in each case.

`Cc1cc(F)cc(N(CC2CC2)[C@H]2CC[C@H](N(C)c3c(C#N)c(=O)n(C)c4ccc(C#N)nc34)CC2)c1` [Example 87]: the IC50 in assay [1] and in assay [2] was 100 to 1000 nM throughout.

As to `Cc1cc2c(cc1N(CC1CCC1)[C@H]1CC[C@@H](N(C)c3cc(=O)n(C)c4ccc(C#N)nc34)CC1)OCO2` [Example 150, cis-8-((4-((cyclobutylmethyl)(6-methylbenzo[d][1,3]dioxol-5-yl)amino)cyclohexyl)(methyl)amino)-5-methyl-6-oxo-5,6-dihydro-1,5-naphthyridine-2-carbonitrile], the figures for the IC50 in assay [1] and in assay [2] were 100 to 1000 nM and 10 to 100 nM, respectively.

Regarding `Cn1c(=O)c(C#N)c(N(C)[C@H]2CC[C@@H](N(C[C@@H]3CCCOC3)c3ccc4c(c3)OCO4)CC2)c2nc(C#N)ccc21` [Example 142, cis-8-((-4-(benzo[d][1,3]dioxol-5-yl(((S)-tetrahydro-2H-pyran-3-yl)methyl)amino)cyclohexyl)(methyl)amino)-5-methyl-6-oxo-5,6-dihydro-1,5-naphthyridine-2,7-dicarbonitrile], the IC50 in assay [1] and in assay [2] was 10 to 100 nM throughout.

As to `Cn1c(=O)c(C#N)c(N(C)[C@H]2CC[C@@H](N(CC3COCCO3)c3ccc(F)cc3)CC2)c2nc(C#N)ccc21` (stereo partly drawn) [Example 141, cis-8-((-4-(((1,4-dioxan-2-yl)methyl)(4-fluorophenyl)amino)cyclohexyl)(methyl)amino)-5-methyl-6-oxo-5,6-dihydro-1,5-naphthyridine-2,7-dicarbonitrile], the IC50 in assay [1] was less than 10 nM; in assay [2] it was 10 to 100 nM.

In the case of `Cn1c(=O)cc(N(C)[C@H]2CC[C@@H](N(CC3CCC3)c3ccc(F)cc3)CC2)c2nc(C#N)ccc21` [Example 43, cis-8-((-4-((cyclobutylmethyl)(4-fluorophenyl)amino)cyclohexyl)(methyl)amino)-5-methyl-6-oxo-5,6-dihydro-1,5-naphthyridine-2-carbonitrile], the IC50 in assay [1] was less than 10 nM; in assay [2] it was 100 to 1000 nM.

Consider `Cn1c(=O)cc(N(C)[C@H]2CC[C@@H](N(CC3CCC3)c3ccc(F)c(CN4CCOCC4)c3)CC2)c2nc(C#N)ccc21` [Example 175, cis-8-((-4-((cyclobutylmethyl)(4-fluoro-3-(morpholinomethyl)phenyl)amino)cyclohexyl) (methyl)amino)-5-methyl-6-oxo-5,6-dihydro-1,5-naphthyridine-2-carbonitrile], for which the IC50 in assay [1] and in assay [2] was 100 to 1000 nM in each case.

With `COc1cccc(N(CC2CC2)[C@H]2CC[C@@H](N(C)c3cc(=O)n(C)c4ccc(C#N)nc34)CC2)c1` [Example 12, cis-8-((4-((cyclopropylmethyl)(3-methoxyphenyl)amino)cyclohexyl)(methyl)amino)-5-methyl-6-oxo-5,6-dihydro-1,5-naphthyridine-2-carbonitrile], the figures for the IC50 in assay [1] and in assay [2] were 100 to 1000 nM and no less than 1000 nM, respectively.

For `CC(C)CN(c1ccnn1C)[C@H]1CC[C@H](N(C)c2c(C#N)c(=O)n(C)c3ccc(C#N)nc23)CC1` [Example 176, trans-8-((-4-(isobutyl(1-methyl-1H-pyrazol-5-yl)amino)cyclohexyl)(methyl)amino)-5-methyl-6-oxo-5,6-dihydro-1,5-naphthyridine-2,7-dicarbonitrile], the IC50 in assay [1] and in assay [2] was no less than 1000 nM in each case.

Regarding `Cn1c(=O)c([N+](=O)[O-])c(N2CCC(N(CC3(C)COC3)c3ccccc3)CC2)c2nc(C#N)ccc21` [Example 1D, 5-Methyl-8-(4-(((3-methyloxetan-3-yl)methyl)(phenyl)amino)piperidin-1-yl)-7-nitro-6-oxo-5,6-dihydro-1,5-naphthyridine-2-carbonitrile], the figures for the IC50 in assay [1] and in assay [2] were 100 to 1000 nM and no less than 1000 nM, respectively.

Consider `COc1cccc(N(CC2CC2)[C@H]2CC[C@@H](N(C)c3c(C#N)c(=O)n(C)c4ccc(C#N)nc34)CC2)c1` [Example 28, cis-8-((4-((cyclopropylmethyl)(3-methoxyphenyl)amino)cyclohexyl)(methyl)amino)-5-methyl-6-oxo-5,6-dihydro-1,5-naphthyridine-2,7-dicarbonitrile], for which the values for the IC50 in assay [1] and in assay [2] were 10 to 100 nM and 100 to 1000 nM, respectively.

As to `Cn1c(=O)cc(N(C)[C@H]2CC[C@@H](N(CC3COCCO3)c3ccc4c(c3)OCCO4)CC2)c2nc(C#N)ccc21` (stereo partly drawn) [Example 183, cis-8-((4-(((1,4-dioxan-2-yl)methyl)(2,3-dihydrobenzo[b][1,4]dioxin-6-yl)amino)cyclohexyl) (methyl)amino)-5-methyl-6-oxo-5,6-dihydro-1,5-naphthyridine-2-carbonitrile], the IC50 in assay [1] and in assay [2] was 100 to 1000 nM in each case.

With `CC(C)CN(c1ccc(F)cc1)[C@H]1CC[C@H](N(C)c2cc(=O)n(C)c3ccc(C#N)nc23)CC1` [Example 41, trans-8-((-4-((4-fluorophenyl)(isobutyl)amino)cyclohexyl)(methyl)amino)-5-methyl-6-oxo-5,6-dihydro-1,5-naphthyridine-2-carbonitrile], the IC50 in assay [1] and in assay [2] was no less than 1000 nM each time.

Regarding `Cc1[nH]c2ccccc2c1C(=O)N[C@H]1CC[C@H](N(CC2(C)COC2)c2ccccc2)CC1` [Example 4E, trans-2-Methyl-N-(4-(((3-methyloxetan-3-yl)methyl)(phenyl)amino)cyclohexyl)-1H-indole-3-carboxamide], the concentration for half-maximal inhibition (IC50) in assay [1] and in assay [2] was no less than 1000 nM throughout.

For the compound `Cn1c(=O)c(C#N)c(N(C)[C@H]2CC[C@@H](N(CC3CCC3)c3ccc4c(c3)OC(F)(F)O4)CC2)c2nc(C#N)ccc21` [Example 121, cis-8-((-4-((cyclobutylmethyl)(2,2-difluorobenzo[d] [1,3]dioxol-5-yl)amino)cyclohexyl)(methyl)amino)-5-methyl-6-oxo-5,6-dihydro-1,5-naphthyridine-2,7-dicarbonitrile], the IC50 in assay [1] and in assay [2] was 10 to 100 nM each time.

As to `COc1cc(N(CC2CC2)[C@H]2CC[C@H](N(C)c3c(C#N)c(=O)n(C)c4ccc(C#N)nc34)CC2)ccc1F` [Example 34, trans-8-((4-((cyclopropylmethyl)(4-fluoro-3-methoxyphenyl)amino)cyclohexyl)(methyl)amino)-5-methyl-6-oxo-5,6-dihydro-1,5-naphthyridine-2,7-dicarbonitrile], the IC50 in assay [1] was 100 to 1000 nM; in assay [2] it was no less than 1000 nM.

Turning to `COc1cc(N(C2CC2)[C@H]2CC[C@H](N(C)c3cc(=O)n(C)c4ccc(C#N)nc34)CC2)ccc1F` [Example 93], the IC50 in assay [1] was 100 to 1000 nM; in assay [2], no less than 1000 nM.

Regarding `Cn1c(=O)cc(N(C)[C@H]2CC[C@@H](N(CC3CC3)c3ccc(Cl)cc3)CC2)c2nc(C#N)ccc21` [Example 7, cis-8-((4-((4-chlorophenyl)(cyclopropylmethyl)amino)cyclohexyl)(methyl)amino)-5-methyl-6-oxo-5,6-dihydro-1,5-naphthyridine-2-carbonitrile], the IC50 in assay [1] was 10 to 100 nM; in assay [2] it was no less than 1000 nM.

With `Cn1c(=O)cc(N(C)[C@H]2CC[C@@H](N(CC3COCCO3)c3ccc(F)c(OC(F)F)c3)CC2)c2nc(C#N)ccc21` (stereo partly drawn) [Example 188, cis-8-((-4-(((1,4-dioxan-2-yl)methyl)(3-(difluoromethoxy)-4-fluorophenyl)amino)cyclohexyl) (methyl)amino)-5-methyl-6-oxo-5,6-dihydro-1,5-naphthyridine-2-carbonitrile], the IC50 in assay [1] and in assay [2] was 100 to 1000 nM in each case.

As for `Cn1c(=O)c([N+](=O)[O-])c(N2CCC(N(CC3COC3)c3ccccc3)CC2)c2nc(C#N)ccc21` [Example 1C, 5-Methyl-7-nitro-8-(4-((oxetan-3-ylmethyl)(phenyl)amino)piperidin-1-yl)-6-oxo-5,6-dihydro-1,5-naphthyridine-2-carbonitrile], the IC50 in assay [1] and in assay [2] was no less than 1000 nM each time.

For `Cn1c(=O)cc(N(C)[C@H]2CC[C@@H](N(CC3CCOC3)c3ccc(F)c(OC(F)F)c3)CC2)c2nc(C#N)ccc21` (stereo partly drawn) [Example 156, cis-8-((-4-((3-(difluoromethoxy)-4-fluorophenyl) ((tetrahydrofuran-3-yl)methyl)amino)cyclohexyl) (methyl)amino)-5-methyl-6-oxo-5,6-dihydro-1,5-naphthyridine-2-carbonitrile], the IC50 in assay [1] and in assay [2] was 100 to 1000 nM throughout.

Regarding `Cc1cc(N(CC2CCOC2)[C@H]2CC[C@@H](N(C)c3c(C#N)c(=O)n(C)c4ccc(C#N)nc34)CC2)ccc1F` (stereo partly drawn) [Example 159, cis-8-((-4-((4-fluoro-3-methylphenyl) ((tetrahydrofuran-3-yl)methyl)amino)cyclohexyl) (methyl)amino)-5-methyl-6-oxo-5,6-dihydro-1,5-naphthyridine-2,7-dicarbonitrile], the IC50 in assay [1] and in assay [2] was 10 to 100 nM throughout.
